Experiments:
[1] = tested on: Leptospira of serogroup Icterohaemorrhagiae; experiment: Antigenic mass of fermenter culture by antigen Elisa, serogroup Icterohaemorrhagiae; type: cell-based, L. interrogans (sensu lato); conditions: for antigenic mass: average of days 3-5; for Ag. mass, average of days 4-5, Ag U/10^9 cells/ml: standard BSA, total 105 μg/ml; for Ag. mass, average of days 3-5, Ag U/10^9 cells/ml: EMJH with standard BSA; for relative Ag. mass (%), average of days 4-5: relative to non-supplemented = 100; for Ag U/10^9 cells/ml, at 3 days: different BSA ingredients in EMJH medium, no supplementation
Protocol: (§1) During all fermentation experiments the temperature was controlled at about 29° C. The medium was aerated with headspace airflow, and the dissolved oxygen (pO2) concentration was controlled by automatic variation of the agitation-rate, to maintain a set pO2 concentration. Temperature, pH and pO2 concentration were monitored online, but pH and foam formation were not controlled.
(§2) Supplementation was done either with pure linoleic acid (Sigma Aldrich, >99% pure) as a 10% v/v stock in absolute ethanol (JT Baker). Alternatively, linoleic acid was supplemented by using a BSA that was created with a high level of linoleic acid (high LA BSA). This high LA BSA was used either to replace a standard BSA in EMJH medium, or was used in addition to BSA in the EMJH medium, in which case it was added as a 25% w/v stock solution in sterile water. The high LA BSA or the pure linoleic acid/ethanol supplements were fed to a fermentor over the course of 4 hours, at 0.1-0.2 ml/hour, until the fermentor culture had received a desired total amount of linoleic acid. Different total available levels of linoleic acid have been tested, of between about 5 and 425 μg/ml in the total volume. The fermenter cultures of Leptospira were supplemented at different cell-densities i.e. at early-, mid- or end phase culture. Typical mid-phase cell density was at about 5×10̂8 cells/ml, which was reached during day 2 of the main incubation. Upon supplementation with linoleic acid from the pure linoleic acid in ethanol stock, sometimes a small decrease in pH was noted, which was corrected by applying some NaOH.
(§3) 2004. Royal Tropical Institute, Amsterdam.
An arbitrary number of antigen units is affixed to the sample, for example: 1000 Units/ml.

[2] = tested on: Leptospira of serogroup Icterohaemorrhagiae; experiment: Biomass (total cell count, Petroff-Hausser counting chamber) of fermenter culture, serogroup Icterohaemorrhagiae; type: cell-based, L. interrogans (sensu lato)
Protocol: as §1
as §2, with “Typical mid-phase cell density was at about 5×10̂8 cells/ml, which was reached during day 2 of the main incubation. Upon supplementation with linoleic acid from the pure linoleic acid in ethanol stock, sometimes a small decrease in pH was noted, which was corrected by applying some NaOH.” left out

[3] = tested on: Leptospira from serogroup Sejroe (serovar Hardjo); experiment: Antigenic mass of fermenter culture by antigen Elisa, serogroup Sejroe; type: cell-based, L. interrogans (sensu lato); conditions: for Antigenic mass, 2 day average, Ag U/10^9 cells/ml: average of days 5 and 6
Protocol: as §2, §3
(§4) In a next study it was confirmed that the increase in antigenic mass upon supplementation with linoleic acid is a general phenomenon in Leptospira. In several experiments cultures of Leptospira strains from several serogroups were proliferated in fermenters in similar set-ups as before and with a similar supplementation: in EMJH medium with either standard BSA or with high LA BSA; some cultures were further supplemented with 100 μg/ml linoleic acid, from pure linoleic acid in ethanol. Results of analyses of biomass and antigen amount are presented in FIGS. 6-7 (Sejroe), and 8-9 (Grippotyphosa), and are summarised in Table 5.
Some increase in biomass was observed after supplementation, but the increase in antigen amount was much higher. The fermenter was run for 6 days, and scores for these experiments were averaged over days 5 and 6 of the culture.

[4] = tested on: Leptospira from serogroup Grippotyphosa; experiment: Antigenic mass of fermenter culture by antigen Elisa, serogroup Grippotyphosa; type: cell-based, L. interrogans (sensu lato); conditions: for Antigenic mass, 2 day average, Ag U/10^9 cells/ml: average of days 4 and 5
Protocol: as §2, §3, §4
For serogroup Grippotyphosa the scores were averaged over days 4 and 5 of the culture.

[5] = tested on: Leptospira from serogroup Australis (serovar Bratislava); experiment: Antigenic mass of fermenter culture by antigen Elisa, serogroup Australis; type: cell-based, L. interrogans (sensu lato)
Protocol: as §2, §3, §4
Similarly, for serogroup Australis (serovar Bratislava), an increase in antigenic mass with 45% was observed; here the low LA BSA medium was used for supplementation.

Leptospira culture = experiment: Linoleic acid supplementation of a Leptospira culture, serogroup not stated; type: cell-based
Protocol: as §2

[6] = 100 μg/ml added, total 125 μg/ml, relative to high LA BSA culture = 100
[7] = 100 μg/ml pure linoleic acid in ethanol added to high LA BSA medium, C18:2 total 125 μg/ml
[8] = EMJH with high LA BSA, C18:2 total 25 μg/ml
[9] = EMJH with high LA BSA, C18:2 total 25 μg/ml, serves as reference = 100

## CCCCCC=CCC=CCCCCCCCC(=O)O [linoleic acid, 9,12-octadecadienoic acid]
[1]; 100 μg/ml pure linoleic acid in ethanol added on day 2 (mid-exponential), EMJH with high LA BSA
  antigenic mass: 1767 Ag. U/1×10̂9 cells
[1]; 100 μg/ml pure linoleic acid in ethanol supplemented at 1 × 10^8 cells/ml (early phase)
  Ag. mass, average of days 4-5, Ag U/10^9 cells/ml: 1783 Ag U/10^9 cells/ml
[1]; 100 μg/ml pure linoleic acid in ethanol supplemented at 5 × 10^8 cells/ml (mid phase)
  Ag. mass, average of days 4-5, Ag U/10^9 cells/ml: 1564 Ag U/10^9 cells/ml
[1]; 100 μg/ml pure linoleic acid in ethanol supplemented at 9 × 10^8 cells/ml (late phase)
  Ag. mass, average of days 4-5, Ag U/10^9 cells/ml: 1656 Ag U/10^9 cells/ml
[1]; 100 μg/ml, early-, mid-, late exponential phase, sampling at 2, 4 and 8 hours after the suppletion
  increase in antigenic mass after supplementation at different phases: acute increase in antigenic mass can be induced at all phases of the Leptospira culture
[1]; 200 μg/ml pure linoleic acid in ethanol, EMJH with high LA BSA
  increase of the antigenic mass: slightly less increase of the antigenic mass compared to that of the 100 μg/ml group
[1]; exemplary increase following application of the method (linoleic acid supplementation)
  increase of the antigenic mass: 121%
[1]; supplemented 75 μg/ml in mid-exponential phase, C18:2 total 80 μg/ml
  Ag. mass, average of days 3-5, Ag U/10^9 cells/ml: 1450 Ag U/10^9 cells/ml
[1]; supplemented 75 μg/ml, C18:2 total 80 μg/ml, relative to non-supplemented culture with standard BSA = 100
  relative Ag. mass (%), average of days 3-5: 199%
[1]; supplemented 150 μg/ml in mid-exponential phase, C18:2 total 155 μg/ml
  Ag. mass, average of days 3-5, Ag U/10^9 cells/ml: 1550 Ag U/10^9 cells/ml
[1]; supplemented 150 μg/ml, C18:2 total 155 μg/ml, relative to non-supplemented culture with standard BSA = 100
  relative Ag. mass (%), average of days 3-5: 213%
[1]; supplemented at 1 × 10^8 cells/ml, 100 μg/ml
  relative Ag. mass (%), average of days 4-5: 226%
[1]; supplemented at 5 × 10^8 cells/ml, 100 μg/ml
  relative Ag. mass (%), average of days 4-5: 198%
[1]; supplemented at 9 × 10^8 cells/ml, 100 μg/ml
  relative Ag. mass (%), average of days 4-5: 210%
[2]; 400 μg/ml pure linoleic acid in ethanol, EMJH with high LA BSA
  toxicity for the bacteria (cell numbers decreased rapidly after supplementation): induced toxicity
[3]; [6]
  relative Ag. mass (%): 284%
[3]; [7]
  Antigenic mass, 2 day average, Ag U/10^9 cells/ml: 814 Ag U/10^9 cells/ml
[3]; supplementation with 100 μg/ml linoleic acid of high LA BSA culture medium
  increase of the antigenic mass: 184%
[4]; [6]
  relative Ag. mass (%): 163%
[4]; [7]
  Antigenic mass, 2 day average, Ag U/10^9 cells/ml: 8286 Ag U/10^9 cells/ml
[4]; supplementation with linoleic acid (100 μg/ml) of high LA BSA medium
  increase of the antigenic mass: 63%
[5]; 100 μg/ml added, total 105 μg/ml, relative to non-supplemented culture = 100
  relative Ag. mass (%): 145%
[5]; 100 μg/ml pure linoleic acid added to low LA BSA medium, C18:2 total 105 μg/ml
  Antigenic mass, 2 day average, Ag U/10^9 cells/ml: 12822 Ag U/10^9 cells/ml
[5]; supplementation of low LA BSA medium
  increase of the antigenic mass: 45%
Leptospira culture; 25 μg linoleic acid available per ml of culture compared to about 5 μg/ml
  increase of the antigenic mass: significant increase of the antigenic mass
Leptospira culture; highest availability level tested, 425 μg/ml, preparation of pure linoleic acid
  toxicity: some toxicity was noticeable for some serovars

## BSA, BovoLep ®: BSA (Bovogen, Australia) recommended for Leptospira culture; standard BSA enriched with a number of vegetable fatty acids
[1]; BSA ingredient in EMJH medium
  effect on antigenic mass: no significant effect
[1]
  Ag U/10^9 cells/ml, at 3 days: 498 Ag U/10^9 cells/ml
[2]; BSA ingredient in EMJH medium
  effect on biomass of Leptospira: did increase the biomass

## BSA, BovoStar ®: a standard all-purpose BSA from the same manufacturer (Bovogen)
[1]
  Ag U/10^9 cells/ml, at 3 days: 533 Ag U/10^9 cells/ml

## BSA, Millipore: a standard commercial BSA (Millipore)
[1]
  Ag U/10^9 cells/ml, at 3 days: 525 Ag U/10^9 cells/ml

## high LA BSA: BSA that was created with a high level of linoleic acid
[1]; 25 instead of 5 μg/ml linoleic acid available
  increase of antigenic mass: 124%
[1]; high LA BSA at 1% w/v in EMJH, 25 μg/ml linoleic acid available
  antigenic mass: 1636 Ag U/1×10̂9 cells
[1]; supplemented 50 μg/ml linoleic acid as high LA BSA solution, C18:2 total 55 μg/ml
  Ag. mass, average of days 3-5, Ag U/10^9 cells/ml: 1612 Ag U/10^9 cells/ml
[1]; supplemented 50 μg/ml linoleic acid as high LA BSA, C18:2 total 55 μg/ml, relative to non-supplemented culture = 100
  relative Ag. mass (%), average of days 3-5: 221%
[3]; [8]
  Antigenic mass, 2 day average, Ag U/10^9 cells/ml: 287 Ag U/10^9 cells/ml
[3]; [9]
  relative Ag. mass (%): 100%
[4]; [8]
  Antigenic mass, 2 day average, Ag U/10^9 cells/ml: 5074 Ag U/10^9 cells/ml
[4]; [9]
  relative Ag. mass (%): 100%

From patent US20140178433A1, “[…] INCREASED ANTIGENIC MASS” (priority 2012, published 2014)
